Target: Cannabinoid receptor 1 (Homo sapiens, UniProt P21554)
Sequence (P21554 whole entry): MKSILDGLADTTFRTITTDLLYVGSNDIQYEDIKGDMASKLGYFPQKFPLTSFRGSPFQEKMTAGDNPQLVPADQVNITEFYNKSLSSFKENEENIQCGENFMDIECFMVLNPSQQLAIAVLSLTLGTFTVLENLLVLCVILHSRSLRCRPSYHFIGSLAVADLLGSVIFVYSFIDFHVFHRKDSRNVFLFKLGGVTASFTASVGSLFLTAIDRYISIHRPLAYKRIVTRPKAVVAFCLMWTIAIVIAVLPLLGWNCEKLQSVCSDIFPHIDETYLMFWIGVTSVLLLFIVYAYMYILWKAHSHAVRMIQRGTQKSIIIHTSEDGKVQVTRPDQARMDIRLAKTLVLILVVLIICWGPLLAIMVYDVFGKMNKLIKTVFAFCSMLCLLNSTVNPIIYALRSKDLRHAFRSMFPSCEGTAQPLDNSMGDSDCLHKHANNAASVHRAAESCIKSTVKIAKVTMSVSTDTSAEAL

Compound: CC(=O)N[C@H]1CCN(c2nc(O[C@@H](C)C(F)(F)F)nc3c2nnn3Cc2ccccc2C(F)(F)F)C1 [US9593123, Example 81]
- EC50: > 10 µM

Source: BindingDB's records for patent US9593123 (Hoffmann-La Roche, 2017)
